Reference: patent publication US10479764B2, “2-methylene-(22E)-25-hexanoyl-24-oxo-26,27-cyclo-22-dehydro-19-nor-vitamin D analogs” (WISCONSIN ALUMNI RESEARCH FOUNDATION, priority 2011, dated 2019)
Where two headings read alike, the source gives them in different places.

Legend:
[1] = Bone calcium mobilization (serum calcium) in vitamin D-deficient rats; format: in vivo, rat
Protocol: (§1) Intestinal Calcium Transport and Bone Calcium Mobilization
(§2) Male, weanling Sprague-Dawley rats were placed on Diet 11 (0.47% Ca) diet+AEK oil for one week followed by Diet 11 (0.02% Ca)+AEK oil for 3 weeks. The rats were then switched to a diet containing 0.47% Ca for one week followed by two weeks on a diet containing 0.02% Ca. Dose administration began during the last week on 0.02% calcium diet. Four consecutive ip doses were given approximately 24 hours apart. Twenty-four hours after the last dose, blood was collected from the severed neck and the concentration of serum calcium determined as a measure of bone calcium mobilization. The first 10 cm of the intestine was also collected for intestinal calcium transport analysis using the everted gut sac method.

[2] = test system: 24-hydroxylase (24Ohase) gene promoter in ROS 17/2.8 (bone) cells; assay: In vitro transcription assay (24-hydroxylase promoter luciferase reporter); format: cell-based; conditions: ROS 17/2.8 cells, FIG. 3, read-out: EC50, transcriptional activity in bone cells (24-hydroxylase gene)
Protocol: In Vitro Transcription Assay
Transcription activity was measured in ROS 17/2.8 (bone) cells that were stably transfected with a 24-hydroxylase (24Ohase) gene promoter upstream of a luciferase reporter gene (Arbour et al., 1998). Cells were given a range of doses. Sixteen hours after dosing the cells were harvested and luciferase activities were measured using a luminometer.
RLU=relative luciferase units.

[3] = test system: HL-60 cells; assay: HL-60 differentiation (nitro blue tetrazolium reduction); format: cell-based, human; conditions: differentiation of HL-60 cells into monocytes, FIG. 2, read-out: EC50, HL-60 cell differentiation
Protocol: The study drugs were dissolved in ethanol and the concentrations determined using UV spectrophotometry. Serial dilutions were prepared so that a range of drug concentrations could be tested without changing the final concentration of ethanol (≤0.2%) present in the cell cultures.
Human promyelocytic leukemia (HL60) cells were grown in RPMI-1640 medium containing 10% fetal bovine serum. The cells were incubated at 37° C. in the presence of 5% CO2.
HL60 cells were plated at 1.2×10^5 cells/ml. Eighteen hours after plating, cells in duplicate were treated with drug. Four days later, the cells were harvested and a nitro blue tetrazolium reduction assay was performed (Collins et al., 1979; J. Exp. Med. 149:969-974). The percentage of differentiated cells was determined by counting a total of 200 cells and recording the number that contained intracellular black-blue formazan deposits. Verification of differentiation to monocytic cells was determined by measuring phagocytic activity (data not shown).

[4] = Intestinal calcium transport (everted gut sac) in vitamin D-deficient rats; format: in vivo, rat
Protocol: as §1, §2

[5] = target: T1, full-length recombinant rat vitamin D receptor (Rattus norvegicus, UniProt P13053); assay: Vitamin D receptor binding, competition with [3H]-1,25(OH)2D3; conditions: full-length recombinant rat VDR; FIG. 1
T1 construct: Full-length recombinant rat receptor was expressed in E. coli; histidine tag (C); made in house; host or cells: E. coli BL21 (DE3) Codon Plus RIL
T1 sequence (P13053 1-423): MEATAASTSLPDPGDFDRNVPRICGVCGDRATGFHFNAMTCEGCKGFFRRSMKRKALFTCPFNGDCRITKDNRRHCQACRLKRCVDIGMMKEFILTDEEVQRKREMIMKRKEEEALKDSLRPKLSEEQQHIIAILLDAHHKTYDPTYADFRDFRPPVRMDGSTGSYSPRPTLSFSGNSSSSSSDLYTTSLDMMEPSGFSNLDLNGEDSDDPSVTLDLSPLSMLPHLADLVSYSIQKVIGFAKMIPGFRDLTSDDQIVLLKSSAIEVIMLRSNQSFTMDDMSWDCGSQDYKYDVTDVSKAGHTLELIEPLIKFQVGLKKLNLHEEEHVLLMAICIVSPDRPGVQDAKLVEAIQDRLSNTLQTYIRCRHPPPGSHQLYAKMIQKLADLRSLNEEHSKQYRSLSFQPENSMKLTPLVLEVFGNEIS
Description: Vitamin D Receptor Binding
Full-length recombinant rat receptor was expressed in E. coli BL21 (DE3) Codon Plus RIL cells and purified to homogeneity using two different column chromatography systems. The first system was a nickel affinity resin that utilizes the C-terminal histidine tag on this protein. The protein that was eluted from this resin was further purified using ion exchange chromatography (S-Sepharose Fast Flow). Aliquots of the purified protein were quick frozen in liquid nitrogen and stored at −80° C. until use. For use in binding assays, the protein was diluted in TEDK50 (50 mM Tris, 1.5 mM EDTA, pH7.4, 5 mM DTT, 150 mM KCl) with 0.1% Chaps detergent. The receptor protein and ligand concentration were optimized such that no more than 20% of the added radiolabeled ligand was bound to the receptor.
The following day, 100 mcl of hydroxylapatite slurry (50%) was added to each tube and mixed at 10-minute intervals for 30 minutes. The hydroxylapaptite was collected by centrifugation and then washed three times with Tris-EDTA buffer (50 mM Tris, 1.5 mM EDTA, pH 7.4) containing 0.5% Titron X-100. After the final wash, the pellets were transferred to scintillation vials containing 4 ml of Biosafe II scintillation cocktail, mixed and placed in a scintillation counter. Total binding was determined from the tubes containing only radiolabeled ligand.

Ki [5]	EC50 ([3]; Homo sapiens)	SMILES	serum calcium levels (bone calcium mobilization) ([1]; vitamin D-deficient rats, low calcium diet (0.02%), all dosages, FIGS. 4A and 4B)	EC50 [2]	EC50 [3]	intestinal calcium transport activity at 87 pmol/day ([4]; 87 pmol/day for 4 consecutive days, FIG. 5A)	intestinal calcium transport activity at 260 pmol/day and then 780 pmol/day ([4]; 260 pmol/day and 780 pmol/day, 4 consecutive days, FIG. 5A)	intestinal calcium transport activity compared with 1,25(OH)2D3 ([4]; in vivo, dose dependent, FIGS. 5A and 5B)	bone calcium mobilization at 780 pmol/day ([1]; 780 pmol/day, FIG. 4B, second group of animals)	dose giving about the same mobilization of bone calcium as 1,25(OH)2D3 at 260 pmol/day ([1]; 4 consecutive days, ip, FIG. 4A, first group of animals)	dose giving about the same mobilization of bone calcium as native hormone at 780 pmol/day ([1]; 4 consecutive days, ip, FIG. 4B, second group of animals)	bone calcium mobilization activity, times less than 1,25(OH)2D3 ([1]; FIGS. 4A and 4B)
		C=C1/C(=C\C=C2/CCC[C@]3(C)[C@@H]([C@H](C)CCCC(C)(C)O)CC[C@@H]23)C[C@@H](O)C[C@@H]1O [1α,25-dihydroxyvitamin D3, reference compound]	increased serum calcium levels at all dosages	0.3 nM	2 nM							
0.3 nM	4 nM	C=C1[C@H](O)CC(=C/C=C2\CCC[C@]3(C)[C@@H]([C@H](C)/C=C/C(=O)C4(C(=O)CCCCC)CC4)CC[C@@H]23)C[C@H]1O [UW-05, 2-methylene-(22E)-25-hexanoyl-24-oxo-26,27-cyclo-22-dehydro-19-nor-1α-hydroxyvitamin D3]		0.3 nM		did not result in substantial activity	a significant increase in effect was seen	approximately equal to 1,25-dihydroxyvitamin D3	no substantial effect was seen	780 pmol/day	7020 pmol/day	about 10 times
